Test results: patent US20040242503A1 (priority 2000, published 2004)
Read-outs that look alike come from different tables or passages of the source. Marks after values point to notes of the source that are not given here.

Legend:
[1] = Levels of L-DOPA, dopamine, DOPAC and HVA in rat brain and kidney; assay type: in vivo
Procedure: (§1) Male Wistar rats weighing 170-280 g, kept two per cage under controlled environmental conditions (12 h light/dark cycle and room temperature 24° C.), were used in all experiments. […] The high pressure liquid chromatograph system consisted of a pump (Gilson model 302; Gilson Medical Electronics, […] Bel, France) connected to a manometric module (Gilson model 802 C) and a stainless-steel 5 μm ODS column (Biophase; Bioanalytical Systems, West Lafayette, Ind.) of 25 cm length; samples were injected by means of an automatic sample injector (Gilson model 231) connected to a Gilson dilutor (model 401). […] The detection was carried out electrochemically with a glassy carbon electrode, an Ag/AgCl reference electrode and an amperometric detector (Gilson model 141); the detector cell was operated at 0.75 V. The current produced was monitored using the Gilson 712 HPLC software.

[2] = Levels of L-DOPA in plasma of rats; assay type: in vivo, rat; details: oral, 30 min before L-DOPA 12 mg/kg plus benserazide 3 mg/kg
Procedure: as §1

[3] = biological target: T1, aromatic L-amino acid decarboxylase (AADC) (Rattus norvegicus, UniProt P14173); assay: Assay of AADC in rat tissues (brain, liver, kidney) under Vmax conditions; assay type: in vivo; details: 30 mg/kg
T1 construct: from tissue; host or cells: brain, liver and kidney of male Wistar rats
T1 sequence (P14173 1-480): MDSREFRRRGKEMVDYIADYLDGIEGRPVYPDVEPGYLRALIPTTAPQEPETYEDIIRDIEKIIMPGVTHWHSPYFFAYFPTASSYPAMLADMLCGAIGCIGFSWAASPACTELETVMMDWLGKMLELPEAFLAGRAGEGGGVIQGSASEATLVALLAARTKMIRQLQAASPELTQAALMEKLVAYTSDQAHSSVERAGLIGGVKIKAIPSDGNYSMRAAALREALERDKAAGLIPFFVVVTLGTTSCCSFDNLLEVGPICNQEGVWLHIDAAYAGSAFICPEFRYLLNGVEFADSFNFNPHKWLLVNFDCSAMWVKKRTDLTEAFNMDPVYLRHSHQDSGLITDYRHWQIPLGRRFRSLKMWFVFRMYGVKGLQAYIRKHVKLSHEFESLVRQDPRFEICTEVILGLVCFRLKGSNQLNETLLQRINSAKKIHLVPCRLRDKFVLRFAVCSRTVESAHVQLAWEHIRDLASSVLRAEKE
Procedure: Male Wistar rats weighing 170-280 g, kept two per cage under controlled environmental conditions (12 h light/dark cycle and room temperature 24° C.), were used in all experiments.
The reaction was stopped by the addition of 500 μl of 2 M perchloric acid and the preparations kept at 4° C. for 60 min. The samples were then centrifuged (200 g, 2 min. 4° C.) and 500 μl aliquots of the supernatant filtered on Spin-X filter tubes (Costar) were used for the assay of dopamine.
Since high doses of benserazide may result in inhibition of AADC in brain (Da Prada, et al., 1987, Eur.

LLC-PK1 cells = assay: Apical uptake of L-DOPA in LLC-PK1 cells; assay type: cell-based, porcine
Procedure: Cell culture LLC-PK1 cells, a porcine-derived proximal renal tubule epithelial cell line which retains several properties of proximal tubular epithelial cells in culture (Hull, R. N., et al., 1976, In Vitro 12; 670-677), were obtained from the American Type Culture Collection (Rockville, Md.). LLC-PK1 cells (ATCC CRL 1392; passages 198-206) and were maintained in a humidified atmosphere of 5% CO2-95% air at 37° C. and grown in Medium 199 (Sigma Chemical Company, St. Louis, Mo., USA) supplemented with 100 U/ml penicillin G, 0.25 μg/ml amphotericin B, 100 μg/ml streptomycin (Sigma), 3% foetal bovine serum (Sigma) and 25 mM N-2-hydroxyethylpiperazine-N'-2-ethanesulfonic acid (HEPES; Sigma). For subculturing, the cells were dissociated with 0.05% trypsin-EDTA, split 1:4 and subcultured in Costar flasks with 75- or 162-cm^2 growth areas (Costar, Badhoevedorp, The Netherlands). […] The cell medium was changed every 2 days, and the cells reached confluence after 3-5 days of incubation. For 24 hours prior to each experiment, the cell medium was free of foetal bovine serum. […] On the day of the experiment, the growth medium was aspirated and the cells washed with Hanks' medium; thereafter, the cell monolayers were preincubated for 15 min in Hanks' medium at 37° C. The Hanks' medium had the following composition (mM): […] Test substances were applied from the apical side only, and were present during the preincubation and incubation periods. During preincubation and incubation, the cells were continuously shaken and maintained at 37° C.

[4] = biological target: T2, aromatic L-amino acid decarboxylase (AADC) (Sus scrofa, UniProt P80041); assay: Decarboxylation of L-DOPA (AADC activity) in LLC-PK1 cells; assay type: cell-based, porcine; details: read-out: inhibition of AADC activity IC50
T2 construct: host or cells: LLC-PK1 cells
T2 sequence (P80041 1-486): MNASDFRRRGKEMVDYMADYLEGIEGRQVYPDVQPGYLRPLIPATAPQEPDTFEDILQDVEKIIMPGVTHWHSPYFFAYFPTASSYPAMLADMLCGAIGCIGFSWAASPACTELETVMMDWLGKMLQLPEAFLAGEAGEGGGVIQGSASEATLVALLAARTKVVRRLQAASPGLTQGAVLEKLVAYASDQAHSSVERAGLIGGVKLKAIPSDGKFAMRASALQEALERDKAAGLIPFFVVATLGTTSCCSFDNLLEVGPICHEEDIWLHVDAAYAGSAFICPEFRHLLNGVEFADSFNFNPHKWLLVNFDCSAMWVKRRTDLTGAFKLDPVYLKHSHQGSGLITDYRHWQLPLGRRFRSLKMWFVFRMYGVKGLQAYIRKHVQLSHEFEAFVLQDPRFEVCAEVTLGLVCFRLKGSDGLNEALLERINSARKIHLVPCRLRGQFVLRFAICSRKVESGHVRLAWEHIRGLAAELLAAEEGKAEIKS
Procedure: On the day of the experiment, the growth medium was aspirated and the cells (LLC-PK1) washed with Hanks' medium; thereafter, the cell monolayers were preincubated for 15 min in Hanks' medium at 37° C. […] The incubation medium also contained pyridoxal phosphate (120 μM), tolcapone (1 μM) and pargyline (100 μM). […] After preincubation, cells were incubated for 6 min in Hanks' medium with 250 μM LDOPA. The reaction was terminated by the addition of 250 μl of […] perchloric acid. The acidified samples were stored at 4° C. before injection into the high pressure liquid chromatograph for the assay of dopamine.
The high pressure liquid chromatograph system consisted of a pump (Gilson model 302; Gilson Medical Electronics, Villiers le Bel, France) connected to a manometric module (Gilson model 802 C) and a stainless-steel 5 μm ODS column (Biophase; Bioanalytical Systems, West Lafayette, Ind.) of 25 cm length; samples were injected by means of an automatic sample injector (Gilson model 231) connected to a Gilson dilutor (model 401). […] The detection was carried out electrochemically with a glassy carbon electrode, an Ag/AgCl reference electrode and an amperometric detector (Gilson model 141); the detector cell was operated at 0.75 V. The current produced was monitored using the Gilson 712 HPLC software.

[5] = brain, R 0.3 mg/kg 30 min before L 12 mg/kg + B 3 mg/kg, 60 min after L + B
[6] = brain, R 1.0 mg/kg 30 min before L 12 mg/kg + B 3 mg/kg, 60 min after L + B
[7] = brain, R 3.0 mg/kg 30 min before L 12 mg/kg + B 3 mg/kg, 60 min after L + B
[8] = brain, R 10.0 mg/kg 30 min before L 12 mg/kg + B 3 mg/kg, 60 min after L + B
[9] = brain, R 30.0 mg/kg 30 min before L 12 mg/kg + B 3 mg/kg, 60 min after L + B
[10] = kidney, R 0.3 mg/kg 30 min before L 12 mg/kg + B 3 mg/kg, 60 min after L + B
[11] = kidney, R 1.0 mg/kg 30 min before L 12 mg/kg + B 3 mg/kg, 60 min after L + B
[12] = kidney, R 3.0 mg/kg 30 min before L 12 mg/kg + B 3 mg/kg, 60 min after L + B
[13] = kidney, R 10.0 mg/kg 30 min before L 12 mg/kg + B 3 mg/kg, 60 min after L + B
[14] = kidney, R 30.0 mg/kg 30 min before L 12 mg/kg + B 3 mg/kg, 60 min after L + B
[15] = brain, L-DOPA 12 mg/kg alone, 60 min

Compound `Oc1ccc(C=Cc2cc(O)cc(O)c2)cc1` [resveratrol] has a DA level [1, 5] of 280.6 ± 36.6 ng/g, a DOPAC level [1, 5] of 192.7 ± 13.8 ng/g and an HVA level [1, 5] of 3975.5 ± 462.1 ng/g. It also gave a L-DOPA level [1, 5] of 146.8 ± 14.9 ng/g, a DOPAC level [1, 6] of 149.9 ± 15.8 ng/g and an HVA level [1, 6] of 3068.6 ± 234.4 ng/g. For the same compound, the L-DOPA level [1, 6] was 143.5 ± 29.1 ng/g, the DA level [1, 7] was 412.5 ± 79.7 ng/g and the DOPAC level [1, 7] was 221.2 ± 33.8 ng/g. It also gave an HVA level [1, 7] of 3026.5 ± 337.2 ng/g, a L-DOPA level [1, 7] of 180.9 ± 26.3 ng/g and a DA level [1, 8] of 531.9 ± 41.6 ng/g. For the same compound, the DOPAC level [1, 8] was 316.6 ± 20.9 ng/g, the HVA level [1, 8] was 2449.5 ± 93.5 ng/g and the L-DOPA level [1, 8] was 208.4 ± 21.8 ng/g. It also gave a DA level [1, 9] of 403.2 ± 99.2 ng/g, a DOPAC level [1, 9] of 257.8 ± 51.1 ng/g and an HVA level [1, 9] of 3324.8 ± 529.4 ng/g. The L-DOPA level [1, 9] was 294.0 ± 52.1 ng/g, the DA level [1, 10] was 685.4 + 148.4 ng/g and the DOPAC level [1, 10] was 564.2 + 183.0 ng/g. For the same compound, the HVA level [1, 10] was 27169.4 ± 2617.0 ng/g, the L-DOPA level [1, 10] was 857.4 + 103.3* ng/g and the DA level [1, 11] was 622.5 + 61.5* ng/g. For the same compound, the DOPAC level [1, 11] was 598.3 + 144.5 ng/g, the HVA level [1, 11] was 26254.3 ± 3677.0 ng/g and the L-DOPA level [1, 11] was 739.3 + 144.7* ng/g. For the same compound, the DA level [1, 12] was 615.0 + 60.8* ng/g, the DOPAC level [1, 12] was 420.4 + 33.3* ng/g and the HVA level [1, 12] was 29094.8 ± 3342.3 ng/g. For the same compound, the L-DOPA level [1, 12] was 1016.2 + 121.5* ng/g, the DA level [1, 13] was 710.3 + 67.2* ng/g and the DOPAC level [1, 13] was 476.3 + 52.8* ng/g. For the same compound, the HVA level [1, 13] was 25779.8 ± 3941.7 ng/g, the L-DOPA level [1, 13] was 949.3 + 126.4* ng/g and the DA level [1, 14] was 864.4 + 316.1* ng/g. For the same compound, the DOPAC level [1, 14] was 731.9 + 427.3 ng/g, the HVA level [1, 14] was 27923.6 ± 10686.2 ng/g and the L-DOPA level [1, 14] was 1198.6 + 225.1* ng/g. The “effect on plasma levels of L-DOPA” value [2] was “Increases in plasma levels of L-DOPA”, the “kidney AADC activity reduction” value ([3]; rat kidney) was 38% and the “liver AADC activity reduction” value ([3]; rat liver) was 48%.

In the case of `N[C@@H](Cc1ccc(O)c(O)c1)C(=O)O` [L-DOPA, L-3,4-dihydroxyphenylalanine, reference compound], the DA level [1, 15] is reported as 201.0 ± 19.6 ng/g, the DOPAC level [1, 15] is reported as 24.3 ± 2.4 ng/g and the HVA level [1, 15] is reported as 320.6 ± 37.4 ng/g. For the same compound, the L-DOPA level [1, 15] was 9.6 ± 1.0 ng/g, the DA level ([1]; kidney, L-DOPA 12 mg/kg alone, 60 min) was 120.8 ± 27.5 ng/g and the “Vmax of L-DOPA apical transporter” value (LLC-PK1 cells; 6 min, 1 to 250 μM substrate) was 3069±224 pmol mg protein/6 min. For the same compound, the “intracellular L-DOPA concentration” value (LLC-PK1 cells; 6 min incubation, medium concentration 0.5 μM) was 4.0 ± 0.4 µM and the Km (LLC-PK1 cells; read-out: Km of L-DOPA apical transporter, 6 min, 1 to 250 μM substrate) was 47 ± 8 µM.

In the case of `CNC(C)(C)C(=O)O` [MeAIB, N-(methylamino)-isobutyric acid], the “effect on the uptake of L-DOPA” value (LLC-PK1 cells; LLC-PK1 cells) is reported as “failed to affect”.

For `NC1(C(=O)O)CC2CCC1C2` (centres unmarked) [BHC, 2-aminobicyclo(2,2,1)-heptane-2-carboxylic acid], the “Vmax for L-DOPA uptake in presence of inhibitor” value (LLC-PK1 cells; 1 mM BHC) was 3783±244 pmol/mg protein/6 min, the “type of inhibitory effect on the accumulation of L-DOPA” value (LLC-PK1 cells; 1 mM BHC) was “competitive type” and the IC50 (LLC-PK1 cells; Sus scrofa, LLC-PK1, read-out: inhibition of L-DOPA uptake IC50) was 407 µM. It also gave a Km (LLC-PK1 cells; read-out: Km for L-DOPA uptake in presence of inhibitor, 1 mM BHC) of 130 ± 19 µM.

`NC(CO)C(=O)NNCc1ccc(O)c(O)c1O` (centres unmarked) [benserazide] gave an IC50 [4] of 0.07 µM.
